{"source": "patent US6548235B2", "about": "“Stabilized solution of an alkali metal or alkaline earth metal salt of p-phenylenediamine color developer and method of making same” (Eastman Chemical Company, priority 2000, dated 2003)", "format_in_all_cases": "physicochemical", "key": {"[1]": {"experiment": "Product solution of CD-3 free base sodium salt after solvent exchange, observed at ambient temperature", "conditions": "Example 53, nominally 23% in water after distilling 2-propanol, contains DEHA", "method": "A 425 gram autoclave solution containing 23.2% CD-3 free base, 2.5% DEHA in 268 g of 2-propanol, and 47 g of water was added to a two-liter flask equipped with an overhead agitator, temperature probe, addition funnel, condenser with take-off provision, and nitrogen blanketing. Water (275 g) and 30 g of 50% aqueous sodium hydroxide were added to the flask. The mixture was distilled at a vapor temperature of approximately 85° C."}, "[2]": {"experiment": "Saturation solubility of CD-3 free base in solvent/water/sodium hydroxide systems", "conditions": "3 weight percent DEHA, ambient temperature, HPLC", "method": "Because CD-3 free base can be converted to its metal salt by treatment with a sufficiently strong base such as an alkali metal or alkaline earth metal hydroxide, carbonate, alkoxide or hydride, the solubility of CD-3 free base in solvent systems in combination with water and base was measured to determine if enhanced solubility could be obtained. The saturation concentration in weight percent again was determined by the techniques of both HPLC and NMR. Selected solvents were combined with water and an alkali metal hydroxide (sodium hydroxide), with each sample containing a small quantity (3 weight percent) of a representative preservative (DEHA). Excess, dry CD-3 free base was added to each combination solvent system and saturation was achieved by mixing for several hours at ambient temperature."}, "[3]": {"experiment": "Saturation solubility of CD-3 free base in solvents and solvent/water mixtures", "conditions": "3% DEHA, ambient temperature", "method": "The solubility of the free base form of color developers CD-3 in a number of potential solvents was determined. Representative solvents were selected from each of the different classes of solvents: alcohols, glycols and glycol ethers. A small quantity of a representative preservative, 3% of N,N-diethylhydroxylamine (DEHA), was added. Excess dry color developer free base (CD-3) was added to each solvent and saturation was achieved by mixing for several hours at room temperature. […] In Table I, Solvent:Water refers to the weight:weight, solvent:water ratio when water was included, CD Free Base Concentration refers to the weight percent saturation concentration of CD-3, and PEG 200 and PEG 300 refers to poly(ethylene glycol) having an average molecular weight of 200 or 300."}}, "data": [{"smiles": "CCN(CC[N-]S(C)(=O)=O)c1ccc(N)c(C)c1.[Na+]", "note": "[CD-3 free base sodium salt]", "values": [{"measurement": "Solution behaviour of final product solution", "setting": "[1]", "result": "remained in solution"}]}, {"smiles": "CCN(CCNS(C)(=O)=O)c1ccc(N)c(C)c1", "note": "[CD-3 free base, 4-amino-3-methyl-N-ethyl-N-(2-methanesulfonamidoethyl)aniline]", "values": [{"measurement": "CD Free Base Conc. (saturation concentration)", "setting": "[2]; Example 19, 2-Isopropoxyethanol/Water/NaOH 63:34:3 w", "result": 22.9, "unit": "weight percent"}, {"measurement": "CD Free Base Conc. (saturation concentration)", "setting": "[2]; Example 20, 2-Methyl-1,3-Propanediol/Water/NaOH 63:34:3 w", "result": 19.0, "unit": "weight percent"}, {"measurement": "CD Free Base Conc. (saturation concentration)", "setting": "[2]; Example 21, 3-Methoxy-1-Butanol/Water/NaOH 63:34:3 w", "result": 21.3, "unit": "weight percent"}, {"measurement": "CD Free Base Conc. (saturation concentration)", "setting": "[2]; Example 22, PEG-200/Water/NaOH 63:34:3 w", "result": 19.5, "unit": "weight percent"}, {"measurement": "CD Free Base Conc. (saturation concentration)", "setting": "[2]; Example 23, PEG-300/Water/NaOH 63:34:3 w", "result": 19.2, "unit": "weight percent"}, {"measurement": "CD Free Base Conc. (saturation concentration)", "setting": "[2]; Example 24, Diethylene Glycol/Water/NaOH 63:34:3 w", "result": 15.1, "unit": "weight percent"}, {"measurement": "CD Free Base Conc. (saturation concentration)", "setting": "[2]; Example 26, 2-Methyl-1,3-Propanediol/Water/NaOH 61:33:6 w", "result": 23.2, "unit": "weight percent"}, {"measurement": "CD Free Base Conc. (saturation concentration)", "setting": "[2]; Example 27, 3-Methoxy-1-Butanol/Water/NaOH 61:33:6 w", "result": 26.4, "unit": "weight percent"}, {"measurement": "CD Free Base Conc. (saturation concentration)", "setting": "[2]; Example 28, PEG-200/Water/NaOH 61:33:6 w", "result": 23.5, "unit": "weight percent"}, {"measurement": "CD Free Base Conc. (saturation concentration)", "setting": "[2]; Example 29, PEG-300/Water/NaOH 61:33:6 w", "result": 20.8, "unit": "weight percent"}, {"measurement": "CD Free Base Conc. (saturation concentration)", "setting": "[2]; Example 30, Diethylene Glycol/Water/NaOH 61:33:6 w", "result": 21.9, "unit": "weight percent"}, {"measurement": "CD Free Base Conc. (saturation concentration)", "setting": "[2]; Example 31, Water/NaOH 93.5:6.5 w", "result": 25.1, "unit": "weight percent"}, {"measurement": "CD Free Base Conc. (saturation concentration)", "setting": "[2]; Example printed 24 (second), 2-Isopropoxyethanol/Water/NaOH 61:33:6 w", "result": 21.9, "unit": "weight percent"}, {"measurement": "CD Free Base Conc. (saturation concentration)", "setting": "[3]; Example 1, 2-Isopropoxyethanol", "result": 8.6, "unit": "weight percent"}, {"measurement": "CD Free Base Conc. (saturation concentration)", "setting": "[3]; Example 2, 2-Methyl-1,3-Propanediol", "result": 3.3, "unit": "weight percent"}, {"measurement": "CD Free Base Conc. (saturation concentration)", "setting": "[3]; Example 3, 3-Methoxy-1-Butanol", "result": 9.3, "unit": "weight percent"}, {"measurement": "CD Free Base Conc. (saturation concentration)", "setting": "[3]; Example 4, PEG-200", "result": 16.9, "unit": "weight percent"}, {"measurement": "CD Free Base Conc. (saturation concentration)", "setting": "[3]; Example 5, PEG-300", "result": 16.7, "unit": "weight percent"}, {"measurement": "CD Free Base Conc. (saturation concentration)", "setting": "[3]; Example 6, Diethylene Glycol", "result": 15.2, "unit": "weight percent"}, {"measurement": "CD Free Base Conc. (saturation concentration)", "setting": "[3]; Example 7, Methanol", "result": 23.6, "unit": "weight percent"}, {"measurement": "CD Free Base Conc. (saturation concentration)", "setting": "[3]; Example 8, Methanol/Water 90:10 w:w", "result": 18.9, "unit": "weight percent"}, {"measurement": "CD Free Base Conc. (saturation concentration)", "setting": "[3]; Example 9, Methanol/Water 50:50 w:w", "result": 6.8, "unit": "weight percent"}, {"measurement": "CD Free Base Conc. (saturation concentration)", "setting": "[3]; Example 10, Methanol/Water 10:90 w:w", "result": 0.7, "unit": "weight percent"}, {"measurement": "CD Free Base Conc. (saturation concentration)", "setting": "[3]; Example 11, Ethanol", "result": 5.4, "unit": "weight percent"}, {"measurement": "CD Free Base Conc. (saturation concentration)", "setting": "[3]; Example 12, Ethanol/Water 90:10 w:w", "result": 9.7, "unit": "weight percent"}, {"measurement": "CD Free Base Conc. (saturation concentration)", "setting": "[3]; Example 13, Ethanol/Water 50:50 w:w", "result": 9.0, "unit": "weight percent"}, {"measurement": "CD Free Base Conc. (saturation concentration)", "setting": "[3]; Example 14, Ethanol/Water 10:90 w:w", "result": 0.6, "unit": "weight percent"}, {"measurement": "CD Free Base Conc. (saturation concentration)", "setting": "[3]; Example 15, 2-Propanol", "result": 1.8, "unit": "weight percent"}, {"measurement": "CD Free Base Conc. (saturation concentration)", "setting": "[3]; Example 16, 2-Propanol/Water 90:10 w:w", "result": 7.8, "unit": "weight percent"}, {"measurement": "CD Free Base Conc. (saturation concentration)", "setting": "[3]; Example 17, 2-Propanol/Water 50:50 w:w", "result": 9.2, "unit": "weight percent"}, {"measurement": "CD Free Base Conc. (saturation concentration)", "setting": "[3]; Example 18, 2-Propanol/Water 10:90 w:w", "result": 0.8, "unit": "weight percent"}]}]}
